# Target: T1, PDE10A (Homo sapiens, UniProt Q9Y233)
# T1 construct: endogenous PDE10A in SKOV3 cells
# Assay: cellular cAMP immunoassay after […] for […] min, parental and empty-vector cells versus PDE10A knockout clones
# Type: cell-based
# T1 sequence (Q9Y233 whole entry): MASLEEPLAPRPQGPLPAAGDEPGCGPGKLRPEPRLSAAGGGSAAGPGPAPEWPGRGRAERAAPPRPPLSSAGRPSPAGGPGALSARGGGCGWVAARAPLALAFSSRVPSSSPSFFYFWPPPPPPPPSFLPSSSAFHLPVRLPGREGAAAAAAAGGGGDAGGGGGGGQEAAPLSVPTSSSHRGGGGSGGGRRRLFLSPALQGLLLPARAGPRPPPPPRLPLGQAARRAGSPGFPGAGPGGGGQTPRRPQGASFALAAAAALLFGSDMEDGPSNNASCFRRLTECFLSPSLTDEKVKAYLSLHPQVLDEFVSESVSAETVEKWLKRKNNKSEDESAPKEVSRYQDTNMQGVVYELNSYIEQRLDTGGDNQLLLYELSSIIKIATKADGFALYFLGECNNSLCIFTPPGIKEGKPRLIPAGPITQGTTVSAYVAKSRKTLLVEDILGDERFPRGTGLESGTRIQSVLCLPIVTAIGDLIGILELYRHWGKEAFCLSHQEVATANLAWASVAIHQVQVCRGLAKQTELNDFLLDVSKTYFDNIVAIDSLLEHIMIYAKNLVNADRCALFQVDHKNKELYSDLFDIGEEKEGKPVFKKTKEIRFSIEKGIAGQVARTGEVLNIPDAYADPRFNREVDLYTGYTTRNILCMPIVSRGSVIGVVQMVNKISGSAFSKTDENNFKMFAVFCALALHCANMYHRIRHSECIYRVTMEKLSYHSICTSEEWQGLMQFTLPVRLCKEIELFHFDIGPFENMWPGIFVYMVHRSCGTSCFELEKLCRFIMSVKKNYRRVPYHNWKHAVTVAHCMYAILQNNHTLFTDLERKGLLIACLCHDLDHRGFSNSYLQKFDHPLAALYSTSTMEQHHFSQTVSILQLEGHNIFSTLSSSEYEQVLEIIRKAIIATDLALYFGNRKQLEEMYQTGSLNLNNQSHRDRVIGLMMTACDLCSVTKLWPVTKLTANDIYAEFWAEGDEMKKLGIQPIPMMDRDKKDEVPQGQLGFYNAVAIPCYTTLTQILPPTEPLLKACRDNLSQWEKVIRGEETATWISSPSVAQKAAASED
structure (smiles),measurement,value
COc1ccc2c(c1)C(CC(=O)Nc1cccnc1)=C(C)/C2=C/c1cc(OC)c(OC)c(OC)c1 [MCI-030],cellular cAMP level,"MCI-030 increased cAMP only in SKOV3 parental and EV 1B9 control cells, but not in the PDE10A KO clones"

# Source: publication PMC9632086, “Phosphodiesterase 10A (PDE10A) as a novel target to suppress β-catenin and RAS signaling in epithelial ovarian cancer” (Journal of Ovarian Research, 2022)
